System: CCI-rats (chronic constriction injury of the sciatic nerve); tactile allodynia in ipsilateral hindpaw, antinociception in contralateral hindpaw
Design: species or system Sprague-Dawley rats
Conditions: rat, in vivo

CN1CC[C@]23c4c5ccc(O)c4O[C@H]2[C@@H](O)C=C[C@H]3[C@H]1C5.Cl [Morphine, Morphine hydrochloride, reference compound]
ED10: 0.7 nmol
ED20: 3.5 nmol
time of peak antiallodynic and antinociceptive responses post-dosing: 0.5 to 0.75 h
dose-response at high i.t. doses (hydrochloride): pronounced sub-maximal ‘ceiling’ effect

From patent US8188048B2 (priority 2006, dated 2012)
